Source: patent publication US20230210755A1, “FUNCTIONAL SKIN COATING POLYMER” (The Johns Hopkins University, priority 2020, published 2023)

Assay: Extractables and leachables from UV absorber containing films in synthetic perspiration, quantitative 1H NMR
Assay type: physicochemical
Details: control: UV filter post-added to extract of Comparative 1 film just prior to concentration (recovery)
Experimental: The films described hereinabove, including the comparative example were further characterized for their ability to retain their UV-filtering components under pseudo-physiological conditions with the potential to extract unbound or otherwise mobile UV-filtering compounds. In general, films were immersed in a gently agitated solution of artificial perspiration for 24 hours at room temperature. Following removal of the films, a small amount of dimethylsulfone was added to each extract solution before it was concentrated to dryness under vacuum (65° C./0 torr). The resulting residues were then taken up in DMSO-d6 and analyzed by quantitative ^1H NMR against the added internal standard (dimethylsulfone). The method was validated by control samples, which were prepared by spiking the extracts derived from silicone films made without UV-filtering compounds, with known amounts of UV-filtering compounds immediately prior to concentration under vacuum.
20-mL screw cap borosilicate vials were charged with 10 g of synthetic perspiration (purchased from Reagents). […] Samples were then analyzed using a Bruker 400 MHz NMR spectrometer. Quantitative determination of the extracted UV filter(s) was then made by comparing the relative integration of distinct resonances derived from the UV filtering compound(s) against that of the internal standard (dimethylsulfone).

SMILES: CCCCC(CC)COC(=O)C=Cc1ccc(OC)cc1 (stereo not shown) [Octinoxate]
- UV filter found by 1H NMR: 98%
